Results: patent publication US4272437A, “Antibacterial agents, and 4-thio azetidinone intermediates” (priority 1979, dated 1981)
Read-outs that look alike come from different tables or passages of the source.

Tests used:
E. coli A-15119 = experiment: MIC, tube dilution, Escherichia coli A15119; format: cell-based; conditions: overnight 37° C.; for MIC: Escherichia coli, A15119, E. coli A15119, read-out: Minimum Inhibitory Concentration (M.I.C.)
Source text: (§1) Representative compounds of the present invention were subjected to in vitro antibiotic screening against a variety of microorganisms.

Pr. morganii A-15153 = experiment: MIC, tube dilution, Proteus morganii A15153; format: cell-based; conditions: overnight 37° C.; for MIC: Morganella morganii, A15153, Proteus morganii A15153, read-out: Minimum Inhibitory Concentration (M.I.C.)
Source text: as §1

Pr. vulgaris A-9716 = experiment: MIC, tube dilution, Proteus vulgaris / Proteus mirabilis A9716; format: cell-based, Proteus vulgaris (name changed to Proteus mirabilis); conditions: overnight 37° C.; for MIC: Proteus vulgaris
Source text: as §1

Str. faecalis A-20688 = experiment: MIC, tube dilution, Streptococcus faecalis A20688; format: cell-based; conditions: overnight 37° C.; for MIC: Enterococcus faecalis, A20688, Str. faecalis A20688, read-out: Minimum Inhibitory Concentration (M.I.C.)
Source text: as §1

[1] = test system: Staph. aureus (Meth-Res) A-15097; experiment: MIC, tube dilution, Staphylococcus aureus A15097 (Meth-Res); format: cell-based; conditions: Staph. aureus A15097 (Meth-Res), overnight 37° C.; for MIC: Staphylococcus aureus, read-out: Minimum Inhibitory Concentration (M.I.C.)
Source text: as §1

Ps. aeruginosa A-9843A = experiment: MIC, tube dilution, Pseudomonas aeruginosa A9843A; format: cell-based; conditions: overnight 37° C.; for MIC: Pseudomonas aeruginosa, A9843A, read-out: Minimum Inhibitory Concentration (M.I.C.), Pseudomonas aeruginosa A9843A
Source text: as §1

Str. pneumoniae A-9585 = experiment: MIC, tube dilution, Streptococcus pneumoniae A9585; format: cell-based; conditions: overnight 37° C., Nutrient Broth; for MIC: Streptococcus pneumoniae, A9585, Str. pneumoniae A9585, read-out: Minimum Inhibitory Concentration (M.I.C.)
Source text: as §1

Ser. marcescens A-20019 = experiment: MIC, tube dilution, Serratia marcescens A20019; format: cell-based; conditions: overnight 37° C.; for MIC: Serratia marcescens, A20019, Serratia marcescens A20019, read-out: Minimum Inhibitory Concentration (M.I.C.)
Source text: as §1

K. pneumoniae A-15130 = experiment: MIC, tube dilution, Klebsiella pneumoniae A15130; format: cell-based; conditions: overnight 37° C.; for MIC: Klebsiella pneumoniae, A15130, K. pneumoniae A15130, read-out: Minimum Inhibitory Concentration (M.I.C.)
Source text: as §1

Staph. aureus A-9537 = experiment: MIC, tube dilution, Staphylococcus aureus A9537; format: cell-based; conditions: overnight 37° C., Nutrient Broth; for MIC: Staphylococcus aureus, A9537, Staph. aureus A9537, read-out: Minimum Inhibitory Concentration (M.I.C.)
Source text: as §1

[2] = test system: Klebsiella species A20468; experiment: MIC, tube dilution, Klebsiella species A20468; format: cell-based; conditions: Klebsiella species (K. pneumoniae) A20468, overnight 37° C.; for MIC: read-out: Minimum Inhibitory Concentration (M.I.C.)
Source text: as §1

Ent. cloacae A-9656 = experiment: MIC, tube dilution, Enterobacter cloacae A9656; format: cell-based; conditions: Enterobacter cloacae A9656, overnight 37° C.; for MIC: read-out: Minimum Inhibitory Concentration (M.I.C.)
Source text: as §1

Ent. cloacae A-9659 = experiment: MIC, tube dilution, Enterobacter cloacae A9659; format: cell-based; conditions: overnight 37° C.; for MIC: Enterobacter cloacae, A9659, Enterobacter cloacae A9659, read-out: Minimum Inhibitory Concentration (M.I.C.)
Source text: as §1

E. coli A-20341-1 = experiment: MIC, tube dilution, Escherichia coli A20341-1; format: cell-based
Source text: as §1

[3] = test system: Providencia stuartii A21205; experiment: MIC, tube dilution, Providencia stuartii (Pr. rettgeri) A21205; format: cell-based; conditions: for MIC: Providencia stuartii
Source text: as §1

[4] = test system: Staph. aureus (Pen-Res) A-9606; experiment: MIC, tube dilution, Staphylococcus aureus A9606 (Pen-Res); format: cell-based; conditions: overnight 37° C.; for MIC: Staphylococcus aureus
Source text: as §1

Str. pyogenes A-9604 = experiment: MIC, tube dilution, Streptococcus pyogenes A9604; format: cell-based; conditions: overnight 37° C., Nutrient Broth; for MIC: Streptococcus pyogenes, A9604, Str. pyogenes A9604, read-out: Minimum Inhibitory Concentration (M.I.C.)
Source text: as §1

[5] = test system: Staph. aureus A-9537 and 50% serum; experiment: MIC, tube dilution, Staph. aureus A9537 + 50% serum; format: cell-based, Staphylococcus aureus; conditions: overnight 37° C.; for MIC: Staphylococcus aureus, read-out: Minimum Inhibitory Concentration (M.I.C.)
Source text: as §1

Pr. mirabilis A-9900 = experiment: MIC, tube dilution, Proteus mirabilis A9900; format: cell-based; conditions: overnight 37° C.; for MIC: Proteus mirabilis, A9900, Proteus mirabilis A9900, read-out: Minimum Inhibitory Concentration (M.I.C.)
Source text: as §1

Ps. aeruginosa A-21213 = experiment: MIC, tube dilution, Pseudomonas aeruginosa A21213; format: cell-based; conditions: Pseudomonas aeruginosa A21213, overnight 37° C.; for MIC: read-out: Minimum Inhibitory Concentration (M.I.C.)
Source text: as §1

[6] = Escherichia coli, A203411; E. coli A20341-1; overnight 37° C.; read-out: Minimum Inhibitory Concentration (M.I.C.)
[7] = A9716, Proteus vulgaris / Proteus mirabilis A9716, read-out: Minimum Inhibitory Concentration (M.I.C.)
[8] = A21205, Providencia stuartii (Pr. rettgeri) A21205, overnight 37° C., read-out: Minimum Inhibitory Concentration (M.I.C.)
[9] = Staph. aureus A9606 (Pen-Res), read-out: Minimum Inhibitory Concentration (M.I.C.)

| SMILES | MIC (E. coli A-15119) | MIC (Pr. morganii A-15153) | MIC (Str. faecalis A-20688) | Minimum Inhibitory Concentration (M.I.C.) [1] | MIC (Ps. aeruginosa A-9843A) | MIC (Str. pneumoniae A-9585) | MIC (Ser. marcescens A-20019) | MIC (K. pneumoniae A-15130) | MIC (Staph. aureus A-9537) | MIC [2] | MIC (Ent. cloacae A-9656) | MIC (Ent. cloacae A-9659) | MIC (E. coli A-20341-1; [6]) | MIC (Str. pyogenes A-9604) | MIC [5] | MIC (Pr. mirabilis A-9900) | MIC (Ps. aeruginosa A-21213) | MIC (Pr. vulgaris A-9716; [7]) | MIC [1] | MIC [3, 8] | also measured |
| --- | --- | --- | --- | --- | --- | --- | --- | --- | --- | --- | --- | --- | --- | --- | --- | --- | --- | --- | --- | --- | --- |
| CCC1C(=O)N2C(C(=O)[O-])=C(C)S[C@H]12.[Na+] (stereo partly drawn) [1 (cis), Sodium 6-Ethyl-2-methylpenem-3-carboxylate] | 125 µg/mL | > 125 µg/mL | 63 µg/mL | 63 µg/mL | > 125 µg/mL | 4 µg/mL | > 125 µg/mL | > 125 µg/mL | 8 µg/mL | > 125 µg/mL | > 125 µg/mL | > 125 µg/mL | 125 µg/mL | 4 µg/mL | > 63 µg/mL | 125 µg/mL | > 125 µg/mL | – | – | – | MIC (Pr. vulgaris A-9716; A9716, read-out: Minimum Inhibitory Concentration (M.I.C.), Proteus vulgaris / Proteus mirabilis A9716): 63 µg/mL; MIC ([3]; A21205, read-out: Minimum Inhibitory Concentration (M.I.C.)): 63 µg/mL; MIC ([4]; read-out: Minimum Inhibitory Concentration (M.I.C.), Staph. aureus A9606 (Pen-Res)): 16 µg/mL |
| CC1=C(C(=O)O)N2C(=O)C(C(C)(C)O)C2S1 (centres unmarked) [Example 3, Potassium 6-(2'-Hydroxyisopropyl)-2-methylpenem-3-carboxylate] | 63 µg/mL | 125 µg/mL | 125 µg/mL | – | > 125 µg/mL | 1 µg/mL | 63 µg/mL | 125 µg/mL | 2 µg/mL | > 125 µg/mL | 125 µg/mL | 125 µg/mL | – | 4 µg/mL | > 63 µg/mL | 63 µg/mL | > 125 µg/mL | 32 µg/mL | 32 µg/mL | 63 µg/mL | MIC (E. coli A-20341-1; Escherichia coli, A203411, E. coli A20341-1; overnight 37° C.; read-out: Minimum Inhibitory Concentration (M.I.C.)): 63 µg/mL; MIC [4, 9]: 4 µg/mL |
| CSC1C(=O)N2C(C(=O)O)=C(C)SC12 (centres unmarked) [Example 5, Potassium 6-Thiomethyl-2-methylpenem-3-carboxylate] | 63 µg/mL | 125 µg/mL | 125 µg/mL | – | > 125 µg/mL | 0.5 µg/mL | 63 µg/mL | 63 µg/mL | 4 µg/mL | > 125 µg/mL | 125 µg/mL | 125 µg/mL | 125 µg/mL | 4 µg/mL | > 63 µg/mL | 63 µg/mL | > 125 µg/mL | 32 µg/mL | 63 µg/mL | 32 µg/mL | MIC [4, 9]: 9 µg/mL |
| O=C(O)C1=C(COc2ccccc2)S[C@@H]2CC(=O)N12 [Example 11, 2-Phenoxymethylpenem-3-carboxylic Acid] | – | – | – | 1 µg/mL | – | – | – | – | – | – | – | – | – | – | – | – | – | – | – | – | Minimum Inhibitory Concentration (M.I.C.) (E. coli A-15119; E. coli A15119): 63 µg/mL; Minimum Inhibitory Concentration (M.I.C.) (Pr. morganii A-15153; Proteus morganii A15153): 16 µg/mL; Minimum Inhibitory Concentration (M.I.C.) (Pr. vulgaris A-9716; Proteus vulgaris / Proteus mirabilis A9716): 16 µg/mL; Minimum Inhibitory Concentration (M.I.C.) (Str. faecalis A-20688; Str. faecalis A20688): 63 µg/mL; Minimum Inhibitory Concentration (M.I.C.) (Ps. aeruginosa A-9843A; Pseudomonas aeruginosa A9843A): > 125 µg/mL; Minimum Inhibitory Concentration (M.I.C.) (Str. pneumoniae A-9585; Str. pneumoniae A9585): .5 µg/mL; Minimum Inhibitory Concentration (M.I.C.) (Ser. marcescens A-20019; Serratia marcescens A20019): > 125 µg/mL; Minimum Inhibitory Concentration (M.I.C.) (K. pneumoniae A-15130; K. pneumoniae A15130): > 125 µg/mL; Minimum Inhibitory Concentration (M.I.C.) (Staph. aureus A-9537; Staph. aureus A9537): 1 µg/mL; Minimum Inhibitory Concentration (M.I.C.) [2]: > 125 µg/mL; Minimum Inhibitory Concentration (M.I.C.) (Ent. cloacae A-9656): > 125 µg/mL; Minimum Inhibitory Concentration (M.I.C.) (Ent. cloacae A-9659; Enterobacter cloacae A9659): > 125 µg/mL; Minimum Inhibitory Concentration (M.I.C.) (E. coli A-20341-1; E. coli A20341-1; overnight 37° C.): > 125 µg/mL; Minimum Inhibitory Concentration (M.I.C.) ([3]; Providencia stuartii (Pr. rettgeri) A21205, overnight 37° C.): 63 µg/mL; Minimum Inhibitory Concentration (M.I.C.) ([4]; Staph. aureus A9606 (Pen-Res)): .5 µg/mL; Minimum Inhibitory Concentration (M.I.C.) (Str. pyogenes A-9604; Str. pyogenes A9604): .5 µg/mL; Minimum Inhibitory Concentration (M.I.C.) [5]: 63 µg/mL; Minimum Inhibitory Concentration (M.I.C.) (Pr. mirabilis A-9900; Proteus mirabilis A9900): 16 µg/mL; Minimum Inhibitory Concentration (M.I.C.) (Ps. aeruginosa A-21213): > 125 µg/mL |
